The values below come from patent US20060241082A1, “Modulating vesicular monoamine transporter trafficking and function: a novel approach for the treatment of parkinson's disease” (priority 2002, published 2006).

Each structure is given as a SMILES string. “Also recorded” adds a separate entry of the source.

The target in experiment [1] is T1, VMAT-2 (Rattus norvegicus, UniProt Q01827). As to the kind of experiment: Direct in vitro application of MPD to vesicular [3H]DA uptake. The experiment is classed as biochemical. Also on record: purified striatal vesicles prepared from treated rats; from tissue; host or cells: striatum of male Sprague-Dawley rats (synaptic vesicles; P2, P3, S3 fractions).
T1 sequence (Q01827 whole entry): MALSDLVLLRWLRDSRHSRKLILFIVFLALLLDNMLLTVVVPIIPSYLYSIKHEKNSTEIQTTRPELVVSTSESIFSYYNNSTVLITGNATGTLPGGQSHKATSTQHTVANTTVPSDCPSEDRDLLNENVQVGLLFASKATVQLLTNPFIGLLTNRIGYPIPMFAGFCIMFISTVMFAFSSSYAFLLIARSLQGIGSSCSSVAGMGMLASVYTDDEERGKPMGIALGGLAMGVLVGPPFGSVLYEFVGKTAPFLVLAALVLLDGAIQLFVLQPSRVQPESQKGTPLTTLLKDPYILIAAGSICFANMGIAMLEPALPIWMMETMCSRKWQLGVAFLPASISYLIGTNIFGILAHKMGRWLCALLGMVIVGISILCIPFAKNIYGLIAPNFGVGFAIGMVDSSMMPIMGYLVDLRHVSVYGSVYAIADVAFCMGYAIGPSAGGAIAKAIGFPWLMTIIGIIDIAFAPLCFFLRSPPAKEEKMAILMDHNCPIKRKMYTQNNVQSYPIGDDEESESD
In experiment [2] the test system is VMAT-2. As to the kind of experiment: VMAT-2 immunoreactivity in striatal subcellular fractions (P2, P3, S3) of treated rats (Western blot). The experiment is classed as in vivo, rat. The following applies: 1 h. The method, then: Striatal synaptosomes were prepared from rats decapitated 1 h after treatment as previously described (Fleckenstein et al., 1997). Briefly, striatal tissue was homogenized in cold 0.32 M sucrose and centrifuged (800×g for 12 min; 4° C.). The supernatant (S1) was then centrifuged (22,000×g for 15 min; 4° C.) and the resulting pellet (P2, synaptosomal fraction) was resuspended at 50 mg original wet weight/ml in cold water and a portion saved for western blot analysis. The remainder of the synaptosomal sample was centrifuged for 20 min at 22,000×g (4° C.) to pellet lysed synaptosomal membranes (P3, synaptosomal membrane fraction), which were then resuspended at 50 mg original wet weight/ml and saved for western blot analysis. Prior to resuspension of the plasmalemmal membrane fraction the supernatant (S3, vesicle-enriched fraction) was removed and saved for western blot analysis.
Binding of VMAT-2 antibody was performed using 60 μl aliquots of synaptosomal (P2), synaptosomal membrane (P3), or vesicle-enriched (S3) preparations. Each aliquot was added to 20 μl of loading buffer (final concentration: 2.25% sodium dodecyl sulfate, 18% glycerol, 180 mM Tris base (pH 6.8), 10% β-mercapto-ethanol and bromophenol blue), boiled for 10 min, and loaded on a 10% sodium dodecyl sulfate-polyacrylamide gel. Following electrophoresis, samples were transferred to polyvinlylidene difluoride membrane, blocked with 5% nonfat dry milk in Tris-buffered saline with tween (250 mM NaCl, 50 mM Tris pH 7.4 and 0.05% Tween 20), and probed with the VMAT-2 antibody (provided by J.W.H.). Bound antibody was visualized with HRP-conjugated goat anti-rabbit antibody, and antigen-antibody complexes were visualized by chemiluminescence. Multiple exposures of blots were obtained to ensure development within the linear range of the film. Bands on blots were quantified by densitometry using Kodak 1D image-analysis software.
Fresh striatal tissue was homogenized in ice-cold 0.32 M sucrose and centrifuged (800×g for 12 min; 4° C.). […] Resuspended tissue was aliquoted into two test tubes. One aliquot was centrifuged (22,000×g for 10 min; 4° C.) to separate plasmalemmal membranes from the synaptic vesicle-enriched fraction. The resulting supernatant (S3) contained the vesicular subcellular fraction of interest, and the pellets (P3; plasmalemmal membrane fraction) were resuspended in cold distilled deionized water.
VMAT-2 antibody was purchased from Chemicon (Temecula, Calif.; AB1767). Binding of VMAT-2 antibody was performed using 60 μl of whole synaptosomal, plasmalemmal membrane or vesicle subcellular fractions. Samples were added to 20 μl of loading buffer (final concentration: 2.25% SDS, 18% glycerol, 180 mM Tris Base (pH 6.8), 10% […] and bromophenol blue). Approximately 60 μg protein of the whole synaptosomal fraction, 40 μg protein of the plasmalemmal membrane fraction or 20 μg protein of the vesicle subcellular fraction was loaded per well in a 10% SDS-polyacrylamide gel. Following electrophoresis, samples were transferred to polyvinylidene difluoride hybridization transfer membrane (New England Nuclear (NEN), Boston, Mass.). All subsequent incubation steps were performed at room temperature while shaking. Each membrane was first blocked for 2 h in 100 ml of tris buffer saline with tween (TBST; 250 mM NaCl, 50 mM tris pH 7.4 and 0.05% tween 20) containing 5% nonfat dry milk. Each membrane was then incubated with anti-VMAT-2 antibody (1:4000 dilution) in 13 ml of TBST with 5% milk for 1 h and then washed 5 times (2×1 min wash; 3×5 min wash) in 70 ml TBST with 5% milk.

The nature of experiment [3]: Locomotor activity and rearing of treated rats. The following applies: MPD 5-40 mg/kg s.c. It is filed as in vivo, rat.
Experiment [4] addresses T2, plasmalemmal DA transporter (DAT) (Rattus norvegicus, UniProt P23977).
T2 construct: Uptake of [^3H]DA was determined in striatal synaptosomes; from tissue; host or cells: striatum of male Sprague-Dawley rats (synaptosomes, P2)
The following applies: rats, cited from earlier work.

The target in experiment [5] is T1, VMAT-2. Also on record: purified striatal vesicles prepared from treated rats; from tissue; host or cells: striatum of male Sprague-Dawley rats (synaptic vesicles; P2, P3, S3 fractions). The following applies: rats, multiple METH; Brown et al., 2000; cited from earlier work.
The mark [6] stands for this setting: METH 4 x 7.5 mg/kg s.c., 2-h intervals.
[7] abbreviates: methamphetamine 4 x 10 mg/kg s.c.

T2 sequence (P23977 whole entry): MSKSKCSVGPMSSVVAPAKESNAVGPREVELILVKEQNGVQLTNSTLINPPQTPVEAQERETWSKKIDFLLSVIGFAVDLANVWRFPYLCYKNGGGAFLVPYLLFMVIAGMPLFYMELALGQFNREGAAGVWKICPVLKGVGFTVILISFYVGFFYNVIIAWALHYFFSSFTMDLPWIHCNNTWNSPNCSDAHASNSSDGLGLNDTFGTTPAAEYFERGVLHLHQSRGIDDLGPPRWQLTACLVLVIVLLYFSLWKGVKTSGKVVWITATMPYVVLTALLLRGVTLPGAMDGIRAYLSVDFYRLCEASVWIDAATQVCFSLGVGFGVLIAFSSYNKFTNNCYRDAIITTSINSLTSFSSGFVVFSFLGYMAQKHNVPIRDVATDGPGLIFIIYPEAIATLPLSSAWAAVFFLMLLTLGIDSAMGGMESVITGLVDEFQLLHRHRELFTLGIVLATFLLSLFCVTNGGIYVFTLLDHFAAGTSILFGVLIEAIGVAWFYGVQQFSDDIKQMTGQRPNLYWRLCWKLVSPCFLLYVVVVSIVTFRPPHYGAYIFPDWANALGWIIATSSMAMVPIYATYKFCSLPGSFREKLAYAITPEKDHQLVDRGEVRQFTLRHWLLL

What is called IC50 is the concentration needed to halve the response being measured. Read a high IC50 as lower potency. Turning to `COC(=O)C(c1ccccc1)C1CCCCN1` (stereo not shown) [MPD, methylphenidate], the IC50 at VMAT-2 [1] (in vitro direct application, n=3) was 19.8 ± 4 µM. Further, the “vesicular [3H]DA uptake on direct application of MPD” value at VMAT-2 [1] (in vitro, concentrations of 1 nM to 1 μM) is given as “without effect”. In the experiment on VMAT-2 [2] (MPD 40 mg/kg s.c. single), the “VMAT-2 immunoreactivity in the plasmalemmal membrane fraction” value was “decreased”, the “VMAT-2 immunoreactivity in the vesicular subcellular fraction” value is “increases” and the “VMAT-2 immunoreactivity in the whole synaptosomal fraction” value is recorded as “no change”. Further, in experiment [3], the “locomotor activity and rearing as compared with controls” value was “increased”.
With `CN[C@@H](C)Cc1ccccc1` (racemic) [METH, methamphetamine], the “magnitude of the decrease in plasmalemmal DA uptake” value in experiment [4] (METH 4 x 10 mg/kg s.c., 2-h intervals, 1 h, Kokoshka 1998, Fleckenstein 1999, Metzger 2000) is 70-80%. Further, the “recovery of plasmalemmal DA uptake after 24 h” value in experiment [4] (multiple METH, Kokoshka et al., 1998) is “≈ 60 % of control values”. Also, on VMAT-2 [5], the “deficit in vesicular DA uptake” value was “≈ 65%”. In addition, in the experiment on VMAT-2 [2] (setting [6]), the “VMAT-2 immunoreactivity in the plasmalemmal membrane fraction (P3)” value is recorded as “no change”, the “VMAT-2 immunoreactivity in the vesicular subcellular fraction (S3)” value was “rapidly decreased” and the “VMAT-2 immunoreactivity in the whole synaptosomal fraction (P2)” value is “Slight decreases; also recorded: no change”. In the experiment on VMAT-2 [2] (methamphetamine 4 x 10 mg/kg s.c., 2-h intervals), the “decrease in VMAT-2 immunoreactivity in the P2 fraction” value was 25%. The “decrease in VMAT-2 immunoreactivity in the P2 fraction” value with VMAT-2 [2] (methamphetamine 4 x 10 mg/kg s.c., 2-h intervals, listed as methamphetamine) turned out to be 40%. Further, in the experiment with VMAT-2 [2] (setting [7]), the “VMAT-2 immunoreactivity in the P3 fractions” value is on record as “no difference” and the “decrease in VMAT-2 immunoreactivity in the S3 fraction” value is 80%.
